Usually IC50 stands for the concentration at which inhibition is half-maximal.

Drawing on patent US20240158392A1 (Janssen Biotech, Inc., priority 2021, published 2024), this text covers IC50 for 29 compounds.

Like-named read-outs stand apart in the source and are kept apart here.

The target of the assay is SIK2 (Homo sapiens, UniProt Q9H0K1). Put plainly: SIK2 Enzymatic Assay High Version 2 (High ATP). The format is biochemical. The method in brief:
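At room temperature, enzyme (6 nM, 2× final) was preincubated with compound for 30 min, then 6 mM ATP and 400 μM HDAC5tide (both 2× final) were added for 2 h. ADP formed was measured by ADP-Glo Max (2 h reagent, 1 h detection) using luminescence.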

[1] abbreviates: enzyme 6 nM, 6 mM ATP and 400 μM HDAC5tide (each 2× final concentration), 30 minutes pre-incubation, 2 hours, ADP-Glo Max luminescence, read-out: SIK2 high ATP IC50 (μM) (Test Example 2).

SIK2, sequence (Q9H0K1 whole entry, species assumed): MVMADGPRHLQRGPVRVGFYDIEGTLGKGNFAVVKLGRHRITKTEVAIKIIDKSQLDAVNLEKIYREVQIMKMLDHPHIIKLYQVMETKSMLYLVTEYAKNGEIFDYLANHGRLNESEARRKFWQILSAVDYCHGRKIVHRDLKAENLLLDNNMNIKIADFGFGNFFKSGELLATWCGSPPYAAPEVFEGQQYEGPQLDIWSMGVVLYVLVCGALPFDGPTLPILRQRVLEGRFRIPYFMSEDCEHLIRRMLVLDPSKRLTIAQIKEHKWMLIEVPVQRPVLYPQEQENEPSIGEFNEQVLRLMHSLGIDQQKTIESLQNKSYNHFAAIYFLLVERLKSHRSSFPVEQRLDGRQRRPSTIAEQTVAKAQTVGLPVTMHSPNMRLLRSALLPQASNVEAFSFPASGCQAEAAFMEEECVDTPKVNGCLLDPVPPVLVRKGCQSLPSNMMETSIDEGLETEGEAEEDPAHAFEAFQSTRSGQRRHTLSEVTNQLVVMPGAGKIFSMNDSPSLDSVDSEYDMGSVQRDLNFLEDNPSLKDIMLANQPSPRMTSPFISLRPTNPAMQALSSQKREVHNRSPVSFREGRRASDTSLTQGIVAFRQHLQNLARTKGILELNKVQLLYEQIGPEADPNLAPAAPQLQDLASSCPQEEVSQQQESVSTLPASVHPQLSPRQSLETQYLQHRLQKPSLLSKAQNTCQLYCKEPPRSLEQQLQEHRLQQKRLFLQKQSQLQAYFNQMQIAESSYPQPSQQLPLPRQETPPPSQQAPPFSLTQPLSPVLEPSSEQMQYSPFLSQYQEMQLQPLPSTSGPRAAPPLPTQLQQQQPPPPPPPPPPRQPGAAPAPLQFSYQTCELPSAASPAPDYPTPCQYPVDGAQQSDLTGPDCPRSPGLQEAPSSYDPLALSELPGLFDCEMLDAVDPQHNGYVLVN

As for `CC#Cc1cc(-c2ccn3nc(NC(=O)C4CC4)cc3c2)c(OCC2(N)COC2)cn1` [Example 433, N-[5-[5-[(3-aminooxetan-3-yl)methoxy]-2-prop-1-ynyl-4-pyridyl]pyrazolo[1,5-a]pyridin-2-yl]cyclopropanecarboxamide], under setting [1], the IC50 is below 0.000847 µM.
As for `CC#Cc1cc(-c2ccn3nc(NC(=O)C4CC4)cc3c2)c(OCC2(F)CNC2)cn1` [Example 434, N-[5-[5-[(3-fluoroazetidin-3-yl)methoxy]-2-prop-1-ynyl-4-pyridyl]pyrazolo[1,5-a]pyridin-2-yl]cyclopropanecarboxamide], under setting [1], the IC50 is below 0.000847 µM.
Regarding `CC#Cc1cc(-c2ccn3nc(NC(=O)C4CC4)cc3c2)c(O[C@H]2C[C@H](N)C2)cn1` [Example 435, N-(5-(5-((1r,3r)-3-aminocyclobutoxy)-2-(prop-1-yn-1-yl)pyridin-4-yl)pyrazolo[1,5-a]pyridin-2-yl)cyclopropanecarboxamide], the IC50 under setting [1] is below 0.000847 µM.
`CC#Cc1cc(-c2ccn3nc(NC(=O)C4CC4)cc3c2)c(O[C@H]2C[C@H]3COC[C@@H](C2)N3)cn1` [Example 436, N-[5-[5-[[(1S,5R)-3-oxa-9-azabicyclo[3.3.1]nonan-7-yl]oxy]-2-prop-1-ynyl-4-pyridyl]pyrazolo[1,5-a]pyridin-2-yl]cyclopropanecarboxamide] showed an IC50 below 0.000847 µM.
Regarding `CC#Cc1cc(-c2ccn3nc(Nc4ccn(C)n4)cc3c2)c(OCC2(F)CNC2)cn1` [Example 437, 5-[5-[(3-fluoroazetidin-3-yl)methoxy]-2-prop-1-ynyl-4-pyridyl]-N-(1-methylpyrazol-3-yl)pyrazolo[1,5-a]pyridin-2-amine], the IC50 under setting [1] is below 0.000847 µM.
`CC#Cc1cc(-c2ccn3nc(Nc4ccn(C)n4)cc3c2)c(O[C@H]2C[C@H]3COC[C@@H](C2)N3)cn1` [Example 438, N-(1-methylpyrazol-3-yl)-5-[5-[[(1S,5R)-3-oxa-9-azabicyclo[3.3.1]nonan-7-yl]oxy]-2-prop-1-ynyl-4-pyridyl]pyrazolo[1,5-a]pyridin-2-amine] came in with an IC50 of 0.0102 µM.
`CC#Cc1cc(-c2ccn3nc(NC(=O)C4CC4)cc3c2)c(O[C@@H]2C[C@H]3COC[C@@H](C2)N3)cn1` [Example 439, N-[5-[5-[[(1S,5R)-3-oxa-9-azabicyclo[3.3.1]nonan-7-yl]oxy]-2-prop-1-ynyl-4-pyridyl]pyrazolo[1,5-a]pyridin-2-yl]cyclopropanecarboxamide] displayed an IC50 of 0.00103 µM.
`CC#Cc1cc(-c2ccn3nc(NC(=O)C4CC4)cc3c2)c(OC[C@@H]2CNCCO2)cn1` [Example 443, N-[5-[5-[[(2S)-morpholin-2-yl]methoxy]-2-prop-1-ynyl-4-pyridyl]pyrazolo[1,5-a]pyridin-2-yl]cyclopropanecarboxamide]: the IC50 under setting [1] worked out at 0.00436 µM.
As to `CCN1CC[C@@H]1COc1cnc(C)cc1-c1ccn2nc(NC(=O)C3CC3)cc2c1` [Example 451, N-[5-[5-[[(2R)-1-ethylazetidin-2-yl]methoxy]-2-methyl-4-pyridyl]pyrazolo[1,5-a]pyridin-2-yl]cyclopropanecarboxamide], the IC50 was 0.0182 µM.
`Cc1cc(-c2ccn3nc(NC(=O)C4CC4)cc3c2)c(OC[C@H]2CCN2CC(F)(F)F)cn1` [Example 452, N-[5-[2-methyl-5-[[(2R)-1-(2,2,2-trifluoroethyl)azetidin-2-yl]methoxy]-4-pyridyl]pyrazolo[1,5-a]pyridin-2-yl]cyclopropanecarboxamide] registered an IC50 of 0.015 µM.
`Cc1cc(-c2ccn3nc(NC(=O)C4CC4)cc3c2)c(OCC2CN(CCF)C2)cn1` [Example 457, N-[5-[5-[[1-(2-fluoroethyl)azetidin-3-yl]methoxy]-2-methyl-4-pyridyl]pyrazolo[1,5-a]pyridin-2-yl]cyclopropanecarboxamide]: under setting [1], the IC50 is 0.0298 µM.
Consider `Cc1cc(-c2ccn3nc(NC(=O)C4CC4)cc3c2)c(O[C@H]2C[C@H]3COC[C@@H](C2)N3C)cn1` [Example 460, N-[5-[2-methyl-5-[[(1S,5R)-9-methyl-3-oxa-9-azabicyclo[3.3.1]nonan-7-yl]oxy]-4-pyridyl]pyrazolo[1,5-a]pyridin-2-yl]cyclopropanecarboxamide], for which the IC50 came to 0.0413 µM.
For the compound `[2H]C([2H])([2H])N1[C@@H]2COC[C@H]1C[C@@H](Oc1cnc(C)cc1-c1ccn3nc(NC(=O)C4CC4)cc3c1)C2` [Example 462, N-[5-[2-methyl-5-[[(1S,5R)-9-(trideuteriomethyl)-3-oxa-9-azabicyclo[3.3.1]nonan-7-yl]oxy]-4-pyridyl]pyrazolo[1,5-a]pyridin-2-yl]cyclopropanecarboxamide], the IC50 was 0.00741 µM.
In the case of `Cc1cc(-c2ccn3nc(NC(=O)[C@@H]4C[C@H]4C)cc3c2)c(O[C@@H]2[C@@H]3CO[C@H]2CN3)cn1` [Example 463, (1R,2R)-2-methyl-N-[5-[2-methyl-5-[[(1S,4S,7R)-2-oxa-5-azabicyclo[2.2.1]heptan-7-yl]oxy]-4-pyridyl]pyrazolo[1,5-a]pyridin-2-yl]cyclopropanecarboxamide], 0.0107 µM corresponded to half-maximal inhibition (IC50).
`Cc1cc(-c2ccn3nc(NC(=O)C4CC4)cc3c2)c(O[C@H]2C[C@@H](N)C2)cn1` [Example 464, N-(5-(5-((1s,3s)-3-aminocyclobutoxy)-2-methylpyridin-4-yl)pyrazolo[1,5-a]pyridin-2-yl)cyclopropanecarboxamide]: the IC50 was 0.0116 µM.
Take `Cc1cc(-c2ccn3nc(NC(=O)C4CC4)cc3c2)c(O[C@H](CN)c2ccccc2)cn1` [Example 466, N-[5-[5-[(1S)-2-amino-1-phenyl-ethoxy]-2-methyl-4-pyridyl]pyrazolo[1,5-a]pyridin-2-yl]cyclopropanecarboxamide]: the IC50 under setting [1] came out at 0.00115 µM.
`Cc1cc(-c2ccn3nc(NC(=O)C4CC4)cc3c2)c(OC[C@H]2CCN2C)cn1` [Example 468, N-[5-[2-methyl-5-[[(2R)-1-methylazetidin-2-yl]methoxy]-4-pyridyl]pyrazolo[1,5-a]pyridin-2-yl]cyclopropanecarboxamide] displayed an IC50 of 0.00813 µM.
As for `Cc1cc(-c2ccn3nc(NC(=O)C4CC4)cc3c2)c(OCC2(c3ccccc3)CNC2)cn1` [Example 470, N-[5-[2-methyl-5-[(3-phenylazetidin-3-yl)methoxy]-4-pyridyl]pyrazolo[1,5-a]pyridin-2-yl]cyclopropanecarboxamide], the IC50 under setting [1] is 0.00511 µM.
The compound `Cc1cc(-c2ccn3nc(NC(=O)C4CC4)cc3c2)c(OC[C@H]2NCC2(C)C)cn1` [Example 471, N-[5-[5-[[(2S)-3,3-dimethylazetidin-2-yl]methoxy]-2-methyl-4-pyridyl]pyrazolo[1,5-a]pyridin-2-yl]cyclopropanecarboxamide] gave an IC50 of 0.0277 µM.
The same measure, in the same setting: the value for `Cc1cc(-c2ccn3nc(NC(=O)C4CC4)cc3c2)c(OC[C@H]2N(C)CC2(C)C)cn1` [Example 473, N-[5-[2-methyl-5-[[(2S)-1,3,3-trimethylazetidin-2-yl]methoxy]-4-pyridyl]pyrazolo[1,5-a]pyridin-2-yl]cyclopropanecarboxamide] was 0.0182 µM.
On to `Cc1cnc(OC[C@@H]2CNCCO2)c(-c2ccn3nc(NC(=O)C4CC4)cc3c2)c1` [Example 474, N-[5-[5-methyl-2-[[(2S)-morpholin-2-yl]methoxy]-3-pyridyl]pyrazolo[1,5-a]pyridin-2-yl]cyclopropanecarboxamide], for which the IC50 under setting [1] was 0.0431 µM.
Turning to `N#Cc1ccc(OC[C@H]2CNCCO2)c(-c2ccn3nc(Nc4ccccn4)cc3c2)c1` [Example 478, 4-[[(2R)-morpholin-2-yl]methoxy]-3-[2-(2-pyridylamino)pyrazolo[1,5-a]pyridin-5-yl]benzonitrile], the IC50 under setting [1] is below 0.000847 µM.
`CC#Cc1ccc(O[C@H]2C[C@H]3COC[C@@H](C2)N3)c(-c2ccn3nc(NC(=O)C4CC4)cc3c2)c1` [Example 479, N-[5-[2-[[(1R,5S)-3-oxa-9-azabicyclo[3.3.1]nonan-7-yl]oxy]-5-prop-1-ynyl-phenyl]pyrazolo[1,5-a]pyridin-2-yl]cyclopropanecarboxamide] displayed an IC50 of 0.0371 µM.
Compound `CCC(=O)c1ccc(O[C@H]2C[C@H]3COC[C@@H](C2)N3)c(-c2ccn3nc(NC(=O)C4CC4)cc3c2)c1` [Example 480, N-[5-[2-[[(1R,5S)-3-oxa-9-azabicyclo[3.3.1]nonan-7-yl]oxy]-5-propanoyl-phenyl]pyrazolo[1,5-a]pyridin-2-yl]cyclopropanecarboxamide] yielded an IC50 below 0.000847 µM.
`O=C(Nc1cc2cc(-c3cc(C(F)F)ccc3O[C@H]3C[C@H]4COC[C@@H](C3)N4)ccn2n1)C1CC1` [Example 481, N-[5-[5-(difluoromethyl)-2-[[(1R,5S)-3-oxa-9-azabicyclo[3.3.1]nonan-7-yl]oxy]phenyl]pyrazolo[1,5-a]pyridin-2-yl]cyclopropanecarboxamide] showed an IC50 below 0.000847 µM.
Consider `CN1[C@@H]2COC[C@H]1C[C@@H](Oc1ccc(C(F)F)cc1-c1ccn3nc(NC(=O)C4CC4)cc3c1)C2` [Example 482, N-[5-[5-(difluoromethyl)-2-[[(1R,5S)-9-methyl-3-oxa-9-azabicyclo[3.3.1]nonan-7-yl]oxy]phenyl]pyrazolo[1,5-a]pyridin-2-yl]cyclopropanecarboxamide], for which half-maximal inhibition (IC50) was put at 0.00424 µM.
Consider `Cc1cc(Nc2cc3cc(-c4cc(C#N)ccc4O[C@H]4CC[C@H](O)CC4)ccn3n2)nc(C)n1` [Example 483, 3-[2-[(2,6-dimethylpyrimidin-4-yl)amino]pyrazolo[1,5-a]pyridin-5-yl]-4-(4-hydroxycyclohexoxy)benzonitrile], for which the IC50 under setting [1] came out at 0.0443 µM.
Turning to `Cc1cc(Nc2cc3cc(-c4cc(C#N)ccc4OCC(C)(C)O)ccn3n2)nc(C)n1` [Example 484, 3-[2-[(2,6-dimethylpyrimidin-4-yl)amino]pyrazolo[1,5-a]pyridin-5-yl]-4-(2-hydroxy-2-methyl-propoxy)benzonitrile], under setting [1], the IC50 worked out at 0.0571 µM.
Regarding `CN1CC(Oc2nnc(Cl)cc2-c2ccn3nc(NC(=O)C4CC4)cc3c2)C1` [Example 485, N-[5-[6-chloro-3-(1-methylazetidin-3-yl)oxy-pyridazin-4-yl]pyrazolo[1,5-a]pyridin-2-yl]cyclopropanecarboxamide], under setting [1], the IC50 is below 0.000847 µM.
